Results from US9676760B2, “Fused heterocyclic compounds as ion channel modulators” (Gilead Sciences, Inc., priority 2011, dated 2017).

Key:
Format in all cases: cell-based
[1] = biological target: T1, wild-type human cardiac sodium channel, hNav1.5 (Homo sapiens, UniProt Q14524); test: Late INa screening assay (QPatch whole cell patch clamp, HEK293)
Procedure, shortened: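 HEK293 stably expressing hNav1.5 without beta subunits, recorded at 23-25° C. Late current was induced by 10 μM tefluthrin. Cells were depolarized from −120 mV to −20 mV for 250 ms at 0.1 Hz. Compounds were tested at 1 μM in extracellular solution, with baseline taken in 0Na-ECF; output is percent block of late INa.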

[2] = biological target: T1, wild-type human cardiac sodium channel, hNav1.5; test: Peak INa screening assay (tonic and use-dependent block); conditions: for inhibition at 1 µM: compound at 1 μM
Procedure, shortened: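 Whole-cell automated patch clamp (QPatch) at 23–25°C on HEK293 cells stably expressing hNav1.5 alpha subunit only, with CsF/CsCl pipette solution, pH 7.4. Compound at 1 μM in extracellular solution; bath Na+ could be cut to 20 mM with a nonpermeant cation. Tonic block measured at 0.1 Hz, use-dependent block at 3 Hz.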

[3] = biological target: hNav 1.8 sodium channel isoform (Homo sapiens, UniProt Q9Y5Y9); test: hNav1.8 sodium channel block
Sequence of hNav 1.8 sodium channel isoform (Q9Y5Y9 whole entry, canonical isoform): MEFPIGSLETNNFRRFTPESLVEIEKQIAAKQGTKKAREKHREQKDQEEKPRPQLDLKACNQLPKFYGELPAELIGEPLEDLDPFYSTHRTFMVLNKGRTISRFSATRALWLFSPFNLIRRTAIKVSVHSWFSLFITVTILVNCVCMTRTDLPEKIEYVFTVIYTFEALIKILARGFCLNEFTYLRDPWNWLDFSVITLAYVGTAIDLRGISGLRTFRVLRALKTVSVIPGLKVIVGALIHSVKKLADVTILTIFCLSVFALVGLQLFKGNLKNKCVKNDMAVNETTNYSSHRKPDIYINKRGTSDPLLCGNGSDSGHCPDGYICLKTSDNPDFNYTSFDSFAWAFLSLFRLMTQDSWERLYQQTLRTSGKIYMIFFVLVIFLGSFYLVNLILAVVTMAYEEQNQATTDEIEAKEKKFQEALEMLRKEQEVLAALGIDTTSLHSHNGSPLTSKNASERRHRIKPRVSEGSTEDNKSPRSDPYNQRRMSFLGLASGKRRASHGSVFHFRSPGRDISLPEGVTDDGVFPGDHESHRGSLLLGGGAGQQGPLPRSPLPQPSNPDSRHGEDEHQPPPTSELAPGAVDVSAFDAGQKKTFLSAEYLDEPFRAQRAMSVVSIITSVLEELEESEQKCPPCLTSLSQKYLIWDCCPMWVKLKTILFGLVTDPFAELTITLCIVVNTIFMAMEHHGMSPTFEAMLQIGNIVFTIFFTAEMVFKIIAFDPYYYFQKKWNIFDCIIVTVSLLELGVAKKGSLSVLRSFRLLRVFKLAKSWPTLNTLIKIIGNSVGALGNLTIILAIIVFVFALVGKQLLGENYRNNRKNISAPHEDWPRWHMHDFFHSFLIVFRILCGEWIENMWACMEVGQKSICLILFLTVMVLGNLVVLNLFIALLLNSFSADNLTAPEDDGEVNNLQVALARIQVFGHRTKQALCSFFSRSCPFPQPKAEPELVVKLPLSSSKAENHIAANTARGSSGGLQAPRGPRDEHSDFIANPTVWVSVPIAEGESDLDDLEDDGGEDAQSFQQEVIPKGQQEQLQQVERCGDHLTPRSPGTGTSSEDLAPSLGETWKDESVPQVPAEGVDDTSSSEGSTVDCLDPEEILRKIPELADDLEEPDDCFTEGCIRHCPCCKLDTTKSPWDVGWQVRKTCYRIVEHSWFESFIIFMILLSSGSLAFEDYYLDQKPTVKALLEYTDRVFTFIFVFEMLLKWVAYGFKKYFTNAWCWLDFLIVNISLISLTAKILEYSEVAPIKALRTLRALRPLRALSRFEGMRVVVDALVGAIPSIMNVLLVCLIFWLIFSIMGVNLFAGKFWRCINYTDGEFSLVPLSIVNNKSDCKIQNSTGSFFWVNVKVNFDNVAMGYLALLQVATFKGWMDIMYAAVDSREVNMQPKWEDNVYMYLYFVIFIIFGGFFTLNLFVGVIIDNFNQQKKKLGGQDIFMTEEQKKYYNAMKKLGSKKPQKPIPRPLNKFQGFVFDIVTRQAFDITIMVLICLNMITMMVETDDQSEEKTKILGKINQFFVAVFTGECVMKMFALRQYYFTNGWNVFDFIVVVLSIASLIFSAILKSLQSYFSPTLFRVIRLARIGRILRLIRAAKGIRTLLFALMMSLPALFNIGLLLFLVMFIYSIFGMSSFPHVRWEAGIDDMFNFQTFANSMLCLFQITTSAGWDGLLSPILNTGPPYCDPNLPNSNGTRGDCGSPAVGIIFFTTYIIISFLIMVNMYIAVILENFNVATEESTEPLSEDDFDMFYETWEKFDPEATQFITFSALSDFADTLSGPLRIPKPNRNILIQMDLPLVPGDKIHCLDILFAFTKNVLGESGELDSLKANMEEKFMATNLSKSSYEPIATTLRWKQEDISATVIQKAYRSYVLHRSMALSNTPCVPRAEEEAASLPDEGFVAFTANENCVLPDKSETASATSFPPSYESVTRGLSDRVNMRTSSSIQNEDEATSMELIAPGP
Excerpt: Compounds of this disclosure that block cardiac late INa may also mediate UDB of other Na^+ channel isoforms including the major Na^+ channel isoforms in peripheral nervous system pain fibers, NaV1.7 and 1.8. Compounds of this disclosure that block these channels may also be useful to decrease neuropathic pain.
The inhibition of either hNav 1.7 and hNav 1.8 isoforms or the inhibition of both channels when stimulated at these frequencies support the use of compounds of this disclosure to decrease neuropathic pain.

[4] = HEK293, % Inhibition at 1 uM, read-out: Late INa*
[5] = HEK293, percent block of late INa, compound at 1 μM, 10 μM Tefluthrin, read-out: Late INa 1 μM
[6] = tonic block of peak INa, 0.1 Hz, read-out: Peak TB 1 μM
[7] = use-dependent block of peak INa, 3 Hz, read-out: Peak UDB 1 μM

T1 sequence (Q14524 whole entry): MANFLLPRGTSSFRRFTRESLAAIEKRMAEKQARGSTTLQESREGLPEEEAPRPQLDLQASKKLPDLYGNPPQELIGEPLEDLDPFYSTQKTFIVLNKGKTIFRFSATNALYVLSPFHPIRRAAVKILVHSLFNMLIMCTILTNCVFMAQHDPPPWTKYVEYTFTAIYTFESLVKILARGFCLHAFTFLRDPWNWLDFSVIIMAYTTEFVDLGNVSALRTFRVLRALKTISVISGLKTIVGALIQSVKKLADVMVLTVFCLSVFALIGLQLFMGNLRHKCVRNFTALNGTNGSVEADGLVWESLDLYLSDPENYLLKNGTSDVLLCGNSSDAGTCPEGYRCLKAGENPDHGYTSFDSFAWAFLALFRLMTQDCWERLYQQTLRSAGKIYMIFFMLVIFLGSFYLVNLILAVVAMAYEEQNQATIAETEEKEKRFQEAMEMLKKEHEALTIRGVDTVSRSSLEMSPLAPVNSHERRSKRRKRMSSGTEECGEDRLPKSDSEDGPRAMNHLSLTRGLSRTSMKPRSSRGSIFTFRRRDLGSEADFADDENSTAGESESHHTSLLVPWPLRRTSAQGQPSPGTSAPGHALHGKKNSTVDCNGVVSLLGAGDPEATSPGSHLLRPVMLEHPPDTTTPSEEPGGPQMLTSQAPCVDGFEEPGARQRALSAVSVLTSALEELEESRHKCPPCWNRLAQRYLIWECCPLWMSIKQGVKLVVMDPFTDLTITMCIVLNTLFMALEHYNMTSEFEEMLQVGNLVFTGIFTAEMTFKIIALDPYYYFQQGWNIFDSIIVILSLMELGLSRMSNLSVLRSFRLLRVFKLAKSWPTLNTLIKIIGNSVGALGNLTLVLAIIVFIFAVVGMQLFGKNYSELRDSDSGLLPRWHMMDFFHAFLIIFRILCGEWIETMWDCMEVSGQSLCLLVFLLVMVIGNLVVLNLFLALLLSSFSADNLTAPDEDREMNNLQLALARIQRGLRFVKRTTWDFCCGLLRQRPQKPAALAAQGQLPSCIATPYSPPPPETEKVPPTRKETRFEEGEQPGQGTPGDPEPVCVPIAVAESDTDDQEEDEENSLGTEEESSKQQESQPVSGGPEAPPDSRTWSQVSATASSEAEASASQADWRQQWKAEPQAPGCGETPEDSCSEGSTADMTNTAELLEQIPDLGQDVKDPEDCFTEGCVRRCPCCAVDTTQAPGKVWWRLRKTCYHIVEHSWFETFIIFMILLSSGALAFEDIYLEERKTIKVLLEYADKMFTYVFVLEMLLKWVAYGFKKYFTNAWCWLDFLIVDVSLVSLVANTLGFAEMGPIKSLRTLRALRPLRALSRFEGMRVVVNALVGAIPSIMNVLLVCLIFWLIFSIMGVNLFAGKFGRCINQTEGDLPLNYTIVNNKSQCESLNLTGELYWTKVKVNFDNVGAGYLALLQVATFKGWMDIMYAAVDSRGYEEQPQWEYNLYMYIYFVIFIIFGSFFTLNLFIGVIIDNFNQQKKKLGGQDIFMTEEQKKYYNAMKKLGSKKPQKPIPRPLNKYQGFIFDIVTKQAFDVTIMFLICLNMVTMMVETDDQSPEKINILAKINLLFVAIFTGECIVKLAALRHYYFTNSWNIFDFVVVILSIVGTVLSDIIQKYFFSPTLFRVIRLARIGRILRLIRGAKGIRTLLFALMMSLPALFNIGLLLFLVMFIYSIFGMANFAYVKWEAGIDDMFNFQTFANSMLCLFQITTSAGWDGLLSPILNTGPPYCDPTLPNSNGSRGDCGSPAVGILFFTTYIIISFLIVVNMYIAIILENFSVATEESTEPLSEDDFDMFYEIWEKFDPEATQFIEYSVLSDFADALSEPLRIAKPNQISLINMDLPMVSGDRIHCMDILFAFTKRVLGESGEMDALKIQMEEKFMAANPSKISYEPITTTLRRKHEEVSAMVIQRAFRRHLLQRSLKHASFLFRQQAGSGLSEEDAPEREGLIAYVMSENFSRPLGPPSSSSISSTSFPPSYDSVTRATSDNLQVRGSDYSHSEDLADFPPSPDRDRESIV

Row | SMILES | inhibition at 1 µM [1, 4] [%] | inhibition at 1 µM [1, 5] [%] | also measured
1 | O=C1CN(Cc2ccccc2)C(=O)c2cc(-c3ccc(C(F)(F)F)cc3)ccc2N1 [Compound X-8, 4-benzyl-7-(4-(trifluoromethyl)phenyl)-3,4-dihydro-1H-benzo[e][1,4]diazepine-2,5-dione] | 50 | 50 | inhibition at 1 µM [2, 6]: 6%; inhibition at 1 µM [2, 7]: 10%
2 | O=C1c2cc(-c3ccc(C(F)(F)F)cc3)ccc2OC[C@H]2CN(CC(F)F)CCN12 [II-22, (R)-2-(2,2-difluoroethyl)-8-(4-(trifluoromethyl)phenyl)-3,4,12,12a-tetrahydro-1H-benzo[f]pyrazino[2,1-c][1,4]oxazepin-6(2H)-one] | 30 | 30 | 
3 | O=C1c2cc(-c3ccc(OC(F)(F)F)cc3)ccc2OCCN1Cc1ncccn1 [II-73, 4-(pyrimidin-2-ylmethyl)-7-(4-(trifluoromethoxy)phenyl)-3,4-dihydrobenzo[f][1,4]oxazepin-5(2H)-one] | 42 | 42 | IC50 ([3]; 10 Hz frequency): > 10000 nM; IC50 ([3]; frequency of 25 Hz): 1500 nM
4 | O=C1c2cc(-c3ccc(C(F)(F)F)cc3)ccc2OC[C@H]2CN(CC(F)(F)F)CCN12 [II-83, (R)-2-(2,2,2-trifluoroethyl)-8-(4-(trifluoromethyl)phenyl)-3,4,12,12a-tetrahydro-1H-benzo[f]pyrazino[2,1-c][1,4]oxazepin-6(2H)-one] | 31 | 31 | 
5 | O=C1c2cc(-c3ccc(Cl)cc3)ccc2OCCN1Cc1ncccn1 [II-88, 7-(4-chlorophenyl)-4-(pyrimidin-2-ylmethyl)-3,4-dihydrobenzo[f][1,4]oxazepin-5(2H)-one] | 41 | 41 | 
6 | CC(C)(C)c1ccc(-c2ccc3c(c2)C(=O)N(Cc2ncccn2)CCO3)cc1 [II-98, 7-(4-tert-butylphenyl)-4-(pyrimidin-2-ylmethyl)-3,4-dihydrobenzo[f][1,4]oxazepin-5(2H)-one] | 39 | 39 | 
7 | O=C1c2cc(-c3ccc(C(F)(F)F)cc3F)ccc2OCCN1Cc1ncccn1 [II-105, 7-(2-fluoro-4-(trifluoromethyl)phenyl)-4-(pyrimidin-2-ylmethyl)-3,4-dihydrobenzo[f][1,4]oxazepin-5(2H)-one] | 45 | 45 | peak INa TB ([2]; measured at 1 μM): 9%; peak INa UDB ([2]; measured at 1 μM): 11%; inhibition at 1 µM [2, 6]: 9%; inhibition at 1 µM [2, 7]: 11%
8 | O=C1c2cc(-c3ccc(C(F)(F)F)cc3Cl)ccc2OCCN1Cc1ncccn1 [II-110, 7-(2-chloro-4-(trifluoromethyl)phenyl)-4-(pyrimidin-2-ylmethyl)-3,4-dihydrobenzo[f][1,4]oxazepin-5(2H)-one] | 35 | 35 | 
9 | O=C1c2cc(-c3ccc(Cl)cc3F)ccc2OCCN1Cc1ncccn1 [II-117, 7-(4-chloro-2-fluorophenyl)-4-(pyrimidin-2-ylmethyl)-3,4-dihydrobenzo[f][1,4]oxazepin-5(2H)-one] | 37 | 37 | 
10 | O=C1c2cc(-c3ccc(C(F)(F)F)cc3)ccc2OCCN1Cc1cn2ccccc2n1 [II-129, 4-(imidazo[1,2-a]pyridin-2-ylmethyl)-7-(4-(trifluoromethyl)phenyl)-3,4-dihydrobenzo[f][1,4]oxazepin-5(2H)-one] | 33 | 33 | 
11 | O=C(c1ncccn1)N1CCOc2ccc(-c3ccc(OC(F)(F)F)cc3)cc2C1 [III-1, pyrimidin-2-yl(7-(4-(trifluoromethoxy)phenyl)-2,3-dihydrobenzo[f][1,4]oxazepin-4(5H)-yl)methanone] | 33 | 33 | 
12 | O=C1c2cc(C#Cc3ccc(OC(F)(F)F)cc3)ccc2OCCN1Cc1ncccn1 [VIII-4, 4-(pyrimidin-2-ylmethyl)-7-((4-(trifluoromethoxy)phenyl)ethynyl)-3,4-dihydrobenzo[f][1,4]oxazepin-5(2H)-one] | 61 | 61 | inhibition at 1 µM [2, 6]: 12%; inhibition at 1 µM [2, 7]: 19%
13 | O=C1c2cc(C#Cc3ccc(C(F)(F)F)cc3)ccc2OCCN1Cc1ncccn1 [VIII-6, 4-(pyrimidin-2-ylmethyl)-7-((4-(trifluoromethyl)phenyl)ethynyl)-3,4-dihydrobenzo[f][1,4]oxazepin-5(2H)-one] | 38 | 38 | 
